# ChEMBL document CHEMBL5537119 (Eur J Med Chem, 2024)
# Tests used:
# THP-1 [1] = experiment: cells; details: Homo sapiens, THP-1, 72 h
# Description: Antiproliferative activity against human THP-1 cells assessed as inhibition of cell growth incubated for 72 hrs by MTT assay
# Histone deacetylase 7 = biological target: T1, Histone deacetylase 7 (Homo sapiens, UniProt Q8WUI4); experiment: Inhibition of HDAC7 (unknown origin)
# T1 sequence (Q8WUI4 whole entry): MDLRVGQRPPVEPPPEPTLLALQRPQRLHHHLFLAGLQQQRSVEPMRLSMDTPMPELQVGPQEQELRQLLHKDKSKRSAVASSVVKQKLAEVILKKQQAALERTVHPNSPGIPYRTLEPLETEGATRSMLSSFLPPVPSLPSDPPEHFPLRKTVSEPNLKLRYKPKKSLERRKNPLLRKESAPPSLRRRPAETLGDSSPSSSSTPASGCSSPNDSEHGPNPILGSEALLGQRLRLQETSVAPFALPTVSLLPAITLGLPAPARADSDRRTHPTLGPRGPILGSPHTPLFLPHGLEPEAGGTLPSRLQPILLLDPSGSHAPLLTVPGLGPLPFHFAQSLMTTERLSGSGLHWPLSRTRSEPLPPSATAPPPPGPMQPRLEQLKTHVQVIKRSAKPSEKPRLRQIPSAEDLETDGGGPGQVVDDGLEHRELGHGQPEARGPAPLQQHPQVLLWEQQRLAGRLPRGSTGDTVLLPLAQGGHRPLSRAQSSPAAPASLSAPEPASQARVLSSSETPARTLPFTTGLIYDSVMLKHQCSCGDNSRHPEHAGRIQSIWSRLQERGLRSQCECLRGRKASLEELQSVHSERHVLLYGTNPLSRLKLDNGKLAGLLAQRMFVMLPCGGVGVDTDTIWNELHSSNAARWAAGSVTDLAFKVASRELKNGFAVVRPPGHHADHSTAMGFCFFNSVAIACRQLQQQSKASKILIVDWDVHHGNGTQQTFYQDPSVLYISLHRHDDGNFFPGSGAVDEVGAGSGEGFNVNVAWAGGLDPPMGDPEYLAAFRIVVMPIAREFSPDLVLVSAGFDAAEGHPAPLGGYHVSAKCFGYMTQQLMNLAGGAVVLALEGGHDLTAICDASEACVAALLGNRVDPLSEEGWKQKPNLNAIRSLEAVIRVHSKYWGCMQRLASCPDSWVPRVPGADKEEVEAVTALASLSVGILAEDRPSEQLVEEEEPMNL
# Histone deacetylase 4 = Histone deacetylase 4 (Homo sapiens, UniProt P56524); experiment: Inhibition of human recombinant TEV-8His-tagged HDAC4 (648 to 1057 residues) expressed in Escherichia coli (DE3) Rosetta cells using Boc-Lys-(Tfa)-AMC as substrate preincubated for 5 mins followed by substrate addition and measured after 90 mins by fluorescence based microplate reader analysis
# Chain of Histone deacetylase 4 (P56524 whole entry, the tested form may be a part): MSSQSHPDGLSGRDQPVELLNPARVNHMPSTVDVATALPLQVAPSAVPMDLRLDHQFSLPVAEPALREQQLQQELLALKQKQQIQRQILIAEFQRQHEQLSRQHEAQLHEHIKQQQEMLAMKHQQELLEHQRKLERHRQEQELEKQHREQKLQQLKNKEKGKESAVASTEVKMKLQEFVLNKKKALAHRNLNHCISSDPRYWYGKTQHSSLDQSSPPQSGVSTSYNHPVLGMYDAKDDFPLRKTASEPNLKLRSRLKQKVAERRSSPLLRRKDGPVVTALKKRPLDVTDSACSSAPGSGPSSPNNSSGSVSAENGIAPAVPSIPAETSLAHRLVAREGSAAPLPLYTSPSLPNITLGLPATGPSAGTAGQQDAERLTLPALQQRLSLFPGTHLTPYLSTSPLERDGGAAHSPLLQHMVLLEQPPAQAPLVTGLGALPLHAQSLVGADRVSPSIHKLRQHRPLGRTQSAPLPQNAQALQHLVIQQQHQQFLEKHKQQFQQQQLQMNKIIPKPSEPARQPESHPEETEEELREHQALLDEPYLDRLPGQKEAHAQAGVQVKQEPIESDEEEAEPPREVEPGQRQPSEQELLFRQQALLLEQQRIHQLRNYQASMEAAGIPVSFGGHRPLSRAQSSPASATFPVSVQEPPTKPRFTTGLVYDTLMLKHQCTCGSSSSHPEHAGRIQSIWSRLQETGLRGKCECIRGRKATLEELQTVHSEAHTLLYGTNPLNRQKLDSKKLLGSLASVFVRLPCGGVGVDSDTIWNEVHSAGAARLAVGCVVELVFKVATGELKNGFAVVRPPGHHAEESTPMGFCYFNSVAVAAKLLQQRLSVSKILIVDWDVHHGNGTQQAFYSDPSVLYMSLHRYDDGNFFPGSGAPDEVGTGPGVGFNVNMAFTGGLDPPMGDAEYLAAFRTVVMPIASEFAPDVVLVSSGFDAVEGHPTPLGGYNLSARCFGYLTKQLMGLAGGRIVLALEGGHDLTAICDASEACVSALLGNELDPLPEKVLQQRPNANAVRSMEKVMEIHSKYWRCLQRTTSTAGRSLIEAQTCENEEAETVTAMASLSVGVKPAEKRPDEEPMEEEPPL
# [2] = Inhibition of Class I/IIb HDAC in human THP-1 cells preincubated for 18 hrs followed by substrate addition and measured after 3 hrs by fluorescence based microplate reader assay; assay type: cell-based
# THP-1 [3] = experiment: Antiproliferative activity against human THP-1 cells assessed as reduction in cell viability at 100 uM incubated for 72 hrs by MTT assay relative to control; assay type: functional
# [4] = Inhibition of Class IIa/8 HDAC in human THP-1 cells preincubated for 18 hrs followed by substrate addition and measured after 3 hrs by fluorescence based microplate reader assay; assay type: cell-based
# Histone deacetylase 5 = Histone deacetylase 5 (Homo sapiens, UniProt Q9UQL6); experiment: Inhibition of HDAC5 (unknown origin)
# Chain of Histone deacetylase 5 (Q9UQL6 whole entry): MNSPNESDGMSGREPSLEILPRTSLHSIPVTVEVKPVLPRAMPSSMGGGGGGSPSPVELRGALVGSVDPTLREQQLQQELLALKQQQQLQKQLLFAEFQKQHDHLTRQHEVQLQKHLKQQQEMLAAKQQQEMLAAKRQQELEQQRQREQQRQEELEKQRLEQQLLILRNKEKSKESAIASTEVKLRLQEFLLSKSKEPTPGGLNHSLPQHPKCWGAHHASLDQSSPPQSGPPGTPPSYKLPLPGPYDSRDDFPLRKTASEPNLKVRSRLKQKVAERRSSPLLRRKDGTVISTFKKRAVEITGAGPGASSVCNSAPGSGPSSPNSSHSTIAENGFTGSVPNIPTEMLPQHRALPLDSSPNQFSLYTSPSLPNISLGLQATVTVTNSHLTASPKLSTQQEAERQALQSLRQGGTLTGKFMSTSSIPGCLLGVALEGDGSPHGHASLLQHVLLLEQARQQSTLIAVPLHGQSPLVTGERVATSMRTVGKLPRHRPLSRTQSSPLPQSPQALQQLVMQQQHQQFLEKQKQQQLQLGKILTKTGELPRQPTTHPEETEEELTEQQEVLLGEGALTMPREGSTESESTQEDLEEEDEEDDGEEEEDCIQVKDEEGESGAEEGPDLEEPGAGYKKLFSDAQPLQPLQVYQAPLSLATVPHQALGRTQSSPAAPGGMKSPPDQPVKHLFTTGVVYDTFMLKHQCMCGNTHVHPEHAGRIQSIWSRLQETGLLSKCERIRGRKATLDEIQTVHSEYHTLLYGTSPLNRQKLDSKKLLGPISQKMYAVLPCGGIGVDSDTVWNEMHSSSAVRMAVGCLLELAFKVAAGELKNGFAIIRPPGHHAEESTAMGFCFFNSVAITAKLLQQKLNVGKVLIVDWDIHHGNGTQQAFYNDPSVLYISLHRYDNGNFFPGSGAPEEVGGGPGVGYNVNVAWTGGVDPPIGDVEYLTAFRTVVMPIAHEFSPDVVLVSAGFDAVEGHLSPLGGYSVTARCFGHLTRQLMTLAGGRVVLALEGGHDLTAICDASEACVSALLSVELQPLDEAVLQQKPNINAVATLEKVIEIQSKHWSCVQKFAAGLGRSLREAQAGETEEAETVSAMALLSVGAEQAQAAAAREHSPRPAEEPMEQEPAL
# THP-1 [5] = experiment: Inhibition of Class IIa/8 HDAC in human THP-1 cells at 100 uM preincubated for 18 hrs followed by substrate addition and measured after 3 hrs by fluorescence based microplate reader assay relative to control; assay type: cell-based; details: time 21.0 hrs, values are per cent of control
# [6] = biological target: T2, Protein deacetylase HDAC6 (Homo sapiens, UniProt Q9UBN7); experiment: Inhibition of human recombinant HDAC6 using Boc-Lys(Ac)-AMC as substrate preincubated for 5 mins followed by substrate addition and measured after 90 mins by fluorescence based microplate reader analysis
# T2 sequence (Q9UBN7 whole entry): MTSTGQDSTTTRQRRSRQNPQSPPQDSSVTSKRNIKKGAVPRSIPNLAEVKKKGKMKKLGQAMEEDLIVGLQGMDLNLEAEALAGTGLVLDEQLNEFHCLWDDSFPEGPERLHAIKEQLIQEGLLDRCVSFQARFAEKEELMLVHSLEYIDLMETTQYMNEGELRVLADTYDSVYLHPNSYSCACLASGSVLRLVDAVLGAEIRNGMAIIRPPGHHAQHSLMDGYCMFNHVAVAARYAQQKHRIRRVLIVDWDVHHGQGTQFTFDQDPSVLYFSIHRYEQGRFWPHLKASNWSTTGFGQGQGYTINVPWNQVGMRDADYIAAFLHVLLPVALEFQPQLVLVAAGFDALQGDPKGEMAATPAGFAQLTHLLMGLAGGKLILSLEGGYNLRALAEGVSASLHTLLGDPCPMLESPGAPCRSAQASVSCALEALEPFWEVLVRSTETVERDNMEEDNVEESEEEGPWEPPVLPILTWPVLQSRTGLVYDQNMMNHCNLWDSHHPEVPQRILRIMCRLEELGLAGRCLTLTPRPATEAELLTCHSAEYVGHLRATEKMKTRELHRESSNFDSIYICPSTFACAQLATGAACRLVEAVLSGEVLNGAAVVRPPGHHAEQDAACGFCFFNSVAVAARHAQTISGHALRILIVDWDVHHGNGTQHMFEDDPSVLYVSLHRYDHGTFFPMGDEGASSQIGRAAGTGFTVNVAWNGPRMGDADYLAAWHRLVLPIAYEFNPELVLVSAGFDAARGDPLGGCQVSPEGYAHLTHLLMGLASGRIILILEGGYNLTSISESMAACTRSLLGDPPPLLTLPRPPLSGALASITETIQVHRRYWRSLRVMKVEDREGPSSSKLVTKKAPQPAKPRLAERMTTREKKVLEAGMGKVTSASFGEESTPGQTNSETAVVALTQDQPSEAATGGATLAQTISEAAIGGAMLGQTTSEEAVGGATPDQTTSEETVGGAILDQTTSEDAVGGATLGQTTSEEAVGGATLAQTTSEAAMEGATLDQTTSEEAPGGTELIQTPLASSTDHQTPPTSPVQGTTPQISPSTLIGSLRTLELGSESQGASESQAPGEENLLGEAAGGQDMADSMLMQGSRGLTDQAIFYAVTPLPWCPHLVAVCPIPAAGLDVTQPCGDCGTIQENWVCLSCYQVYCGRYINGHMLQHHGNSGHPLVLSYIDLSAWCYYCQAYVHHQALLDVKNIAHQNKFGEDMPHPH
structure (smiles),measurement,setting,value
O=C(NOCc1coc(-c2ccccc2)n1)c1ccc(-c2noc(C(F)(F)F)n2)cc1,IC50,THP-1 [1],~100 µM
same,IC50,Histone deacetylase 7,1.97 µM
same,IC50,Histone deacetylase 4,0.118 µM
same,IC50,[2],> 100 µM
same,Activity,THP-1 [3],47%
same,IC50,[4],38.1 µM
same,IC50,Histone deacetylase 5,1.09 µM
same,residual activity,THP-1 [5],76%
same,IC50,[6],> 100 µM
